The values below are quoted from earlier work in patent US11478463B2, “Mast cell stabilizers for treatment of chronic inflammatory conditions” (Emergo Therapeutics, Inc., priority 2016, dated 2022).

For data set [1] the following is noted: patients.
For data set [2] the following is noted: ketotifen 2 mg per dose, twice daily.
For data set [3] the following is noted: in vivo.

Regarding `CN1CCC(=C2c3ccccc3CC(=O)c3sccc32)CC1` [ketotifen], in data set [1], the drowsiness entry is reported as “causes extreme drowsiness in many patients”. Further, in data set [2], the steady state level is about 2 ng/mL and the “time to approach steady state level” value is given as “at least 2.5 days”.

In the case of `O=C1Cc2ccccc2C(=C2CCNCC2)c2ccsc21` [norketotifen], the “half-life relative to ketotifen” value in data set [3] was “longer half-life than ketotifen”. Further, the drowsiness result in data set [1] was “does not cause drowsiness”.
